Like-named read-outs stand apart in the source and are kept apart here.
Tests used:
PTGER4 (EP4) [1] = molecular target: T1, PTGER4 (EP4) (Homo sapiens (Human), UniProt P35408)
PTGER2 (EP2) = PTGER2 (EP2) (Homo sapiens (Human), UniProt P43116); experiment: hEP2 b-arrestin assay (PathHunter HEK 293 PTGER2 b-arrestin cells); type: cell-based; conditions: antagonistic activity, beta-arrestin assay; read-out: hEP2 b-arr IC50
Description: Plate is pre-incubated 15 minutes at 37° C. Then five microliters of PGE2 (final conc. 5 μM) are transferred into the assay plate. Plate is incubated 120 minutes at 37° C.
(each concentration is measured in duplicate)

EP4 = EP4 (Homo sapiens (Human), UniProt P35408); experiment: hEP4 cAMP assay (BT549 breast cancer cells, HTRF cAMP); type: cell-based; conditions: antagonistic activity, PGE2 6 nM
Sequence of EP4 (P35408 whole entry): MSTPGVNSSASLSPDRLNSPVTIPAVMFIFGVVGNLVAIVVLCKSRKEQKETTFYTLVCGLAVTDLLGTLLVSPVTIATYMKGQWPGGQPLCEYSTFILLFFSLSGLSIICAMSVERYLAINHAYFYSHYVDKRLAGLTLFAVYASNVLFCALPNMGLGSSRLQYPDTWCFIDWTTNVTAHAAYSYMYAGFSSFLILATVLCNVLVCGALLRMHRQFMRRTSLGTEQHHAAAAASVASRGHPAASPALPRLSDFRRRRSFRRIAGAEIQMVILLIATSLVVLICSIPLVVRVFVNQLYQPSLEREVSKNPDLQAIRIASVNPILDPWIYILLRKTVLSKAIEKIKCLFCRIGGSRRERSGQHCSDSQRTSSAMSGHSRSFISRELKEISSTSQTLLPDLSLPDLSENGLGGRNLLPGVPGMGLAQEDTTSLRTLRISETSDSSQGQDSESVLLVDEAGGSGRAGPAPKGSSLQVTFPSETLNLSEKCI
Outline: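 BT549 breast cancer cells (endogenous EP4) in HBSS/20 mM HEPES/0.2% BSA/2 mM IBMX preincubated 45 min at RT with compound, then stimulated 30 min at RT with 6 nM PGE2 (final). cAMP read by competitive HTRF immunoassay, signal inversely proportional to cAMP.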

EP2 = EP2 (Homo sapiens (Human), UniProt P43116); experiment: hEP2 cAMP assay (SF295 glioblastoma cells, HTRF cAMP); type: cell-based; conditions: antagonistic activity
Sequence of EP2 (P43116 whole entry): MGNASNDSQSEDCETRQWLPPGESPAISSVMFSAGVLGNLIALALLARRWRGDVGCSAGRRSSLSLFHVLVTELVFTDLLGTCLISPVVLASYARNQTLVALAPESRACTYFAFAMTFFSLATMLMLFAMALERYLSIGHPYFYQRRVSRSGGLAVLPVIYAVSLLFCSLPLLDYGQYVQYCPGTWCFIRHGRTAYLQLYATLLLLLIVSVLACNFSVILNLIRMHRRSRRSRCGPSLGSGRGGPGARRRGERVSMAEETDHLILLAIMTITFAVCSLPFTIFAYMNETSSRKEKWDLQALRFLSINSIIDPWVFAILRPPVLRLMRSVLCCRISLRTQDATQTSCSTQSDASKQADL
Outline: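 PGE2-driven cAMP accumulation was measured by HTRF in SF295 cells, which express endogenous EP2 only. Cells in assay buffer with 2 mM IBMX were pre-incubated 45 min at RT, then incubated 30 min at RT. Detection used competition between cellular cAMP and d2-cAMP for a cryptate anti-cAMP antibody.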

PTGER4 (EP4) [2] = molecular target: T1, PTGER4 (EP4); experiment: cell-based

Sequence of PTGER2 (EP2) (P43116 whole entry): as above
T1 sequence (P35408 whole entry): as the sequence (P35408 whole entry) above

Molecule	IC50 (PTGER4 (EP4) [1]) [nM]	IC50 (PTGER2 (EP2)) [nM]	IC50 (EP2) [nM]	IC50 (EP4) [nM]	IC50 (PTGER4 (EP4) [2]) [nM]	IC50 (EP4; BT549 cells) [nM]
(4-{6-[2-(7-Ethynyl-2,3-dihydro-benzo[1,4]dioxin-6-yl)-ethylamino]-pyrimidin-4-yl}-2-propyl-phenyl)-acetic acid [Example 440]	51		25			65
CCOc1cc(-c2cc(NCCc3cc4ccccc4cc3C#N)ncn2)ccc1C(=O)O [Ex 92]	105		1680	57		
CCOc1cc(-c2cc(NCCc3cc4ccccc4cc3OC(C)C)ncn2)sc1C(=O)O [Ex 31]	6		7740	18		
CCOc1cc(-c2cc(NCCc3ccc4cccnc4c3C)ncn2)sc1C(=O)O [Ex 22]	20		395	13		
CCOc1cc(-c2cc(NCCc3cc(F)c4ncccc4c3F)ncn2)sc1C(=O)O [Ex 86]	79		445	49		
N#Cc1cc2c(cc1CCNc1cc(-c3ccc(C(=O)O)c(OC4CCC4)c3)ncn1)OCCO2 [Ex 113]	179		251	82		
CCOc1cc(-c2cc(NCCc3cc(C)c4c(c3)OCCO4)ncn2)sc1C(=O)O [Ex 95]	25		447	59		
CCOc1cc(-c2cc(NCCc3ccc4sccc4c3)ncn2)ccc1OCC(=O)O [Ex 121]	42		283	93		
CCOc1cc(-c2cc(NCCc3ccc4ncsc4c3)ncn2)sc1C(=O)O [Ex 91]	40		586	56		
CCOc1cc(-c2cc(NCCc3cc4ccsc4cc3C#N)ncn2)ccc1CC(=O)O [Ex 82]	128		251	46		
CCOc1cc(-c2cc(NCCc3cc4ccccc4cc3OC(F)F)ncn2)ccc1OCC(=O)O [Ex 129]	35		494	104		
CCOc1cc(-c2cc(NCCc3cc4cccnc4cc3F)ncn2)sc1C(=O)O [Ex 98]	33		314	64		
CCOc1cc(-c2cc(NCCc3c(OC)cc4ccccc4c3F)ncn2)ccc1CC(=O)O [Ex 37]	16		281	22		
CCOc1cc(-c2cc(NCCc3cc4ccccc4cc3OC(C)C)ncn2)ccc1OCC(=O)O [Ex 89]	17		19400	54		
C=Cc1c(CCNc2cc(-c3cc(OCC)c(C(=O)O)s3)ncn2)ccc2ccccc12 [Ex 75]	86		483	41		
(4-{6-[2-(4-Fluoro-benzo[b]thiophen-5-yl)-ethylamino]-pyrimidin-4-yl}-2-trifluoromethoxy-phenyl)-acetic acid [Example 489]	128	231				
CCOc1cc(-c2cc(NCCc3c(F)c(F)c4cc(C)oc4c3OC)ncn2)sc1C(=O)O [Ex 55, 5-{6-[2-(4,5-Difluoro-7-methoxy-2-methyl-benzofuran-6-yl)-ethylamino]-pyrimidin-4-yl}-3-ethoxy-thiophene-2-carboxylic acid]		844	335	16	25	

Now from value to molecule, other results behind:

IC50 (PTGER4 (EP4) [1]) [nM]	IC50 (PTGER2 (EP2)) [nM]	IC50 (EP2) [nM]	IC50 (EP4) [nM]	IC50 (PTGER4 (EP4) [2]) [nM]	Molecule	IC50 (EP4; BT549 cells) [nM]
223	934				CCOc1cc(-c2cc(NCCc3cc(F)c4sccc4c3)ncn2)ccc1C(=O)NCC(C)(C)O [Example 463]	
77		277	234		CCOc1cc(-c2cc(NCCc3ccc4sccc4c3)ncn2)ccc1OC(C)C(=O)O (stereo not drawn) [Ex 202]	
125		> 28100	509		CCOc1cc(-c2cc(NCCc3cc4ccccc4cc3OC(C)C)ncn2)ccc1C(=O)O [Ex 284]	
286		5650	315		O=C(O)c1ccc(-c2cc(NCCc3ccc4cccc(F)c4c3)ncn2)cc1OC1CCC1 [Ex 231]	
95		459	121		C#Cc1c(CCNc2cc(-c3ccc(OCC(=O)O)c(OCC)c3)ncn2)ccc2ccccc12 [Ex 140]	
63		358	84		CCOc1cc(-c2cc(NCCc3ccc4ccccc4c3C)ncn2)ccc1OCCC(=O)O [Ex 134]	
788		272	380		CCOc1cc(-c2cc(NCCc3ccc4c(c3)CCS4)ncn2)ccc1C(=O)O [Ex 255]	
743		559	489		CCOc1cc(-c2cc(NCCc3cc4ccccc4cc3Cl)ncn2)ccc1C(=O)O [Ex 279]	
309		568	188		CCOc1cc(-c2cc(NCCc3cc4cccnc4c(C)c3Cl)ncn2)ccc1OCC(=O)O [Ex 179]	
15		459	64		CCOc1cc(-c2cc(NCCc3ccc4ncccc4c3)ncn2)sc1-c1noc(=O)[nH]1 [Example 338, 3-{3-Ethoxy-5-[6-(2-quinolin-6-yl-ethylamino)-pyrimidin-4-y]-thiophen-2-yl}-[1,2,4]oxadiazol-5(4H)-one]	
128		769	183		CCOc1cc(-c2cc(NCCc3cc4c(cc3OC)NCCC4)ncn2)sc1C(=O)O [Ex 173]	
131		328	122		C#Cc1c(CCNc2cc(-c3ccc(C(=O)O)c(OCC)c3)ncn2)ccc2ccccc12 [Ex 141]	
279		329	208		CCOc1cc(-c2cc(NCCc3c(F)cc4ncccc4c3F)ncn2)ccc1OCC(=O)O [Ex 191]	
68		353	106		C#Cc1c(CCNc2cc(-c3ccc(C(=O)O)c(OC4CCC4)c3)ncn2)ccc2ccccc12 [Ex 131]	
815		269	538		O=C(O)c1ccc(-c2cc(NCCc3ccc4scnc4c3)ncn2)cc1OC1CCC1 [Ex 291]	
866		926	674		CCOc1cc(-c2cc(NCCc3ccc4sccc4c3)nc(C)n2)ccc1CC(=O)O [Ex 308]	
128	359				O=C(O)c1ccc(-c2cc(NCCc3c(F)cc4ccccc4c3F)ncn2)cc1OC1CCC1 [Ex 333]	
113	225				CSc1cc(-c2cc(NCCc3c(F)cc4ccccc4c3F)ncn2)ccc1C(=O)O [Ex 336]	
	51	14	324	437	COc1cc2c(cc1CCNc1cc(-c3ccc(C(=O)O)c(SC)c3)ncn1)OCO2 [Ex 277, 4-{6-[2-(6-Methoxy-benzo[1,3]dioxol-5-yl)-ethylamino]-pyrimidin-4-yl}-2-methylsulfanyl-benzoic acid]	
	12	104	11	3	CCOc1cc(-c2cc(NCCc3ccc4sccc4c3)ncn2)sc1-c1noc(=O)[nH]1 [Example 340, 3-{5-[6-(2-Benzo[b]thiophen-5-yl-ethylamino)-pyrimidin-4-yl]-3-ethoxy-thiophen-2-yl}-[1,2,4]oxadiazol-5(4H)-one]	
	64	453	54	28	CCCc1cc(-c2cc(NCCc3ccc4sccc4c3F)ncn2)ccc1CC(=O)O [Example 386, (4-{6-[2-(4-Fluoro-benzo[b]thiophen-5-yl)-ethylamino]-pyrimidin-4-yl}-2-propyl-phenyl)-acetic acid]	
